# Read-outs that look alike come from different tables or passages of the source.
# Columns and labels:
# HRV3 [1] = experiment: Antiviral activity, SRB method using CPE reduction, HRV3-infected HeLa cells; format: cell-based, human rhinovirus; settings: for antiviral activity against HRV3 (in words): HeLa cells; for IC50: Human rhinovirus sp., HRV3, HeLa, HRV3 in HeLa cells, mean ± S.D., ND = maximum inhibition rate under 50%, read-out: IC50, concentration required to inhibit virus-induced cytopathic effect (CPE) by 50%
# Procedure: (§1) HRV 2 and 3 were provided by the ATCC (American Type Culture Collection, Manassas, VA, USA) and were propagated in human epitheloid carcinoma cervix (HeLa) cells at 32 °C. HeLa cells were maintained in minimal essential medium (MEM) supplemented with 10% fetal bovine serum (FBS) and 0.01% antibiotic-antimycotic.
# (§2) Assays of antiviral activity and cytotoxicity were evaluated by the SRB method using CPE reduction, recently reported. […] Next day, medium was removed and then washed with 1× phosphate buffered saline (PBS). Infectivity of virus stock was determined by the SRB method using cytopathic effect (CPE) reduction and was determined as infectivity of the virus by SRB ID50 (50% infective dose). […] The antiviral activity of each test material was determined with a 10-fold diluted concentration ranging from 0.1 to 100 μg/mL. Three wells were used as virus controls (virus-infected non-drug-treated cells) while three wells were used as cell controls (non-infected non-drug-treated cells). The culture plates were incubated at 37 °C in 5% CO2 for 2 days. After washing 1 times with 1× PBS, 100 μL of cold (−20 °C) 70% acetone were added to each well and left for 30 min at −20 °C. 70% acetone was removed and 96-well plates were left at dry oven for 30 min. 100 μL of 0.4% (w/v) SRB in 1% acetic acid solution were added to each well and left at room temperature for 30 min. Unbound SRB was removed and the plates were washed 5 times with 1% acetic acid before oven drying and were then left in a dry oven for 1 day. Bound SRB was solubilized with 100 μL of 10 mM unbuffered tris-base solution and plates were left on a table for 30 min. The absorbance was read at 540 nm by using a VERSAmax microplate reader (Molecular Devices, Palo Alto, CA, USA) with a reference absorbance at 620 nm. To calculate the IC50 values, the results were transformed to percentage of controls and the IC50 values were graphically obtained from the dose-response curves. The percent protection achieved by the test compound in HRV2 or HRV3-infected cells was calculated by the following formula: […]
# (§3) where (ODt)virus is the optical density measured with a given concentration of the test compound in virus-infected cells; (ODc)virus is the optical density measured for the control untreated virus-infected cells; and (ODc)mock is the optical density measured for control untreated mock-infected cells. The concentration achieving 50% protection according to the formula above was defined as the 50% inhibitory concentration (IC50). The therapeutic index was defined as CC50/IC50. […] Next day, medium was removed and the 96-well plates were replaced with media containing the serially diluted compounds and the cells were further incubated for 48 h. The culture medium was removed and washed with 1× PBS. The next step was conducted by antiviral activity assay above described. To calculate the CC50 values, the results were transformed to percentage of controls and the CC50 values were graphically obtained from the dose-response curves. Ribavirin was used as positive, and dimethyl sulfoxide (DMSO) was used as negative control.
# HRV2 [2] = experiment: Antiviral activity, SRB method using CPE reduction, HRV2-infected HeLa cells; format: cell-based, human rhinovirus; settings: for antiviral activity against HRV2 (in words): HeLa cells; for IC50: Human rhinovirus sp., HRV2, HeLa, HRV2 in HeLa cells, mean ± S.D., read-out: IC50, concentration required to inhibit virus-induced cytopathic effect (CPE) by 50%; for TI, therapeutic index = CC50/IC50: HRV2
# Procedure: as §1, §2, §3
# HRV2 [3] = experiment: Microscopic observation of HRV2-induced CPE in HeLa cells; format: cell-based, human rhinovirus; settings: HRV2-infected HeLa cells, 20 μg/mL, 32 °C, 2 days
# Procedure: (§4) After a 2-day infection of HeLa cells with HRV2 and HRV3, the effect of compound 1 and compound 3 on HRV-induced cytopathic effect (CPE) investigated.
# (§5) Figure 3 The effect of compound 1 or compound 3 on HRV2 (left group; I) and HRV 3 (right group; II)-induced CPE. The virus-infected cells were treated with compound 1 or compound 3 of 20 μg/mL. After incubation at 32 °C in 5% of CO2 for 2 days, the cell morphology was photographed under a microscope.
# (§6) Briefly, HeLa cells were seeded onto a 96-well culture plate at a concentration of 2 × 10^4 cells per well. The next day, the medium was removed and washed with PBS. Then, 0.09 mL of diluted virus suspension and 0.01 mL of medium supplemented with 20 mM MgCl2 containing compound 1 or compound 3 of 20 μg/mL were added. After incubation at 32 °C in 5% CO2 for 2 days, the morphology of cells was observed under microscope of 32 × 10 magnifications (St Ernst-Leitz, Wetzlar, Germany), and images were recorded.
# [4] = Cytotoxicity, SRB method, non-infected HeLa cells, 48 h; format: cell-based, human; settings: human, non-infected HeLa cells, Table 4, read-out: CC50, concentration required to reduce cell growth by 50%
# Procedure: as §2, §3
# HRV3 [5] = experiment: Microscopic observation of HRV3-induced CPE in HeLa cells; format: cell-based, human rhinovirus; settings: HRV3-infected HeLa cells, 20 μg/mL, 32 °C, 2 days
# Procedure: as §4, §5, §6
# HeLa cells = experiment: Cytotoxicity, SRB method, non-infected HeLa cells, 48 h; format: cell-based, human; settings: Table 2, column under HRV3
# Procedure: as §2, §3
IC50 (HRV2 [2]; Table 4),SMILES,antiviral activity against HRV3 (in words) (HRV3 [1]),antiviral activity against HRV2 (in words) (HRV2 [2]),effect on HRV2-induced visible CPE (HRV2 [3]),CC50 at 48 h [4],also measured
–,"COCc1cc(Br)c(O)c(O)c1Br [Compound 5, 2,5-Dibromo-3,4-dihydroxy-benzyl methyl ether]",no antiviral effect,no antiviral effect,–,–,–
–,"Oc1cc(Cc2cc(O)c(O)c(Br)c2Br)c(Br)c(Br)c1O [Compound 6, 2,2′,3,3′-Tetrabromo-4,4′,5,5′-tetrahydroxydiphenylmethane]",no antiviral effect,no antiviral effect,–,–,–
2.5 ± 0.66 µg/mL,"OCc1cc(O)c(O)c(Br)c1Br [Compound 1, 2,3-Dibromo-4,5-dihydroxybenzyl alcohol]",did not show anti-HRV3 activity,–,inhibited the formation of a visible CPE,> 20 µg/mL,"TI, therapeutic index = CC50/IC50 (HRV2 [2]; Table 4): 8.00"
2.15 ± 0.51 µg/mL,"NC(=O)c1ncn([C@@H]2O[C@H](CO)[C@@H](O)[C@H]2O)n1 [Ribavirin, reference compound]",–,–,prevented a CPE,> 20 µg/mL,"IC50 (HRV3 [1]; Table 2): 14.2 ± 2.2 µg/mL; IC50 (HRV3 [1]; Table 4): 5.09 ± 0.6 µg/mL; effect on HRV3-induced visible CPE (HRV3 [5]): prevented a CPE; IC50 (HRV2 [2]; Table 2, ND = maximum inhibition rate under 50%): 17.1 ± 1.48 µg/mL; CC50, concentration required to reduce cell growth by 50% (HeLa cells): >20 µg/mL"
–,"COCc1cc(O)c(O)c(Br)c1Br [Compound 4, 2,3-Dibromo-4,5-dihydroxybenzyl methyl ether]",no antiviral effect,no antiviral effect,–,–,–
–,"O=Cc1cc(O)c(O)c(Br)c1Br [Compound 2, 2,3-Dibromo-4,5-dihydroxybenzaldehyde]",no antiviral effect,no antiviral effect,–,–,–
7.11 ± 0.64 µg/mL,"COCc1cc(O)c(O)c(Br)c1Cc1cc(O)c(O)c(Br)c1Br [Compound 3, 2,2′,3-Tribromo-3′,4,4′,5-tetrahydroxy-6′-methoxymethyldiphenylmethane]",–,–,inhibited the formation of a visible CPE,> 20 µg/mL,"IC50 (HRV3 [1]; Table 4): 4.69 ± 0.44 µg/mL; TI, therapeutic index = CC50/IC50 (HRV3 [1]; Table 4, HRV3): 4.26; effect on HRV3-induced visible CPE (HRV3 [5]): inhibited the formation of a visible CPE; TI, therapeutic index = CC50/IC50 (HRV2 [2]; Table 4): 2.81"
